From US20240299414A1, “SUBCUTANEOUS OR INTRAMUSCULAR INJECTION FORMULATIONS OF ILOPROST” (EICOS SCIENCES, INC., priority 2020, published 2024)
Where two headings read alike, the source gives them in different places.

Legend:
[1] = PK sub-study of IV iloprost infusion (plasma, LC-MS); type: in vivo, human; conditions: for AUC(0-t) / AUC(0-inf) / Vd / half-life: human, plasma; for AUC(0-t): read-out: AUC0-last, Geometric mean (geometric CV %); for AUC(0-inf): read-out: AUC0-inf, Geometric mean (geometric CV %); for Vd: read-out: Vss, Mean (SD)
Procedure: Eligible subjects were given the option to participate in a PK sub-study. Subjects who participated in the sub-study provided plasma samples for PK analysis. The samples were analyzed for iloprost concentrations using validated liquid chromatography mass spectrometry methods.
The following PK parameters were calculated whenever possible, based on the plasma concentrations of iloprost: • Steady state plasma concentration just before infusion was stopped • Area under the plasma concentration versus time curve (AUC) from time of dosing to the last time point with measurable concentration (AUC0-last) • AUC from time 0 extrapolated to infinity (AUC0-inf) • Percentage of AUC obtained by extrapolation (AUCextrap%) • Terminal elimination constant (λz) • Plasma terminal elimination half-life (t1/2) • Plasma clearance (CL), calculated as dose/AUC0-inf • Volume of distribution (V), calculated as dose/(λz×AUC0-inf)

[2] = Safety and tolerability in the IV iloprost study (adverse events, vital signs, ECG, laboratory); type: in vivo, human
Procedure: On Day 1, study drug was initiated at a starting dose of 0.5 ng/kg/min, and dose increases occurred every 30 minutes (±5 minutes) in increments of 0.5 ng/kg/min up to 2.0 ng/kg/min or the individual tolerated dose. If dose-limiting adverse events (e.g., headache, flushing, jaw pain, myalgia, nausea, or vomiting) occurred that could not be tolerated by the subject, or if the subject experienced symptomatic hypotension, then the dose was reduced in a step-wise manner by 0.5 ng/kg/min every 30 minutes (±5 minutes) until a tolerated dose was determined or the infusion was stopped until the symptoms resolved at which point the study drug was reinitiated at a previously tolerated dose. If symptomatic hypotension or a dose-limiting adverse event occurred during administration of iloprost at the starting dose (i.e., 0.5 ng/kg/min), the infusion was reduced to 0.25 ng/kg/min. If the dose of 0.25 ng/kg/min was not tolerated due to symptomatic hypotension or if a dose-limiting adverse event occurred, the study drug was discontinued, and re-initiation of the infusion could have been attempted after the event had resolved or had been treated. Blood pressure and heart rate were monitored 15 minutes (±5 minutes) prior to and after all dose changes. The maximum tolerated dose was maintained for the remaining 6-hour daily period. At the end of the 6-hour infusion period, the dose was stopped. Subjects were to be monitored for up to 1 hour after completion of study drug infusion (i.e., vital signs were obtained 15 minutes [+5 minutes] and 1 hour [+15 minutes] after completion of the infusion).
Safety parameters included adverse events, physical examination findings, vital sign measurements (heart rate and blood pressure), 12-lead electrocardiogram (ECG) findings, and standard clinical laboratory measurements (chemistry and hematology).

[3] = cited from earlier work
[4] = 1.5 ng/kg, maximum tolerated dose level 1.50 ng/kg/min IV, n = 1
[5] = maximum tolerated dose level 1.00 ng/kg/min IV, n = 1
[6] = maximum tolerated dose level 1.00 ng/kg/min IV, n = 2
[7] = maximum tolerated dose level 2.00 ng/kg/min IV, n = 1
[8] = maximum tolerated dose level 2.00 ng/kg/min IV, n = 4

## CC#CCC(C)[C@H](O)/C=C/[C@@H]1[C@H]2C/C(=C/CCCC(=O)O)C[C@H]2C[C@H]1O (stereo partly drawn) [Iloprost, (5E)-5-[(3aS,4R,5R,6aS)-5-hydroxy-4-[(E,3S)-3-hydroxy-4-methyloct-1-en-6-ynyl]-3,3a,4,5,6,6a-hexahydro-1H-pentalen-2-ylidene]pentanoic acid]
[1]; 0.50 to 2.00 ng/kg/min, exception Css and AUC0-last at 1.50 ng/kg/min
  geometric mean of Css, AUC0-last and AUC0-inf versus dose: increased as dose increased
[1]; 0.5 ng/kg, maximum tolerated dose level 0.50 ng/kg/min IV, n = 1
  AUC(0-t): 0.116 ng·h/mL
[1]; [4]
  AUC(0-inf): 0.603 ng·h/mL
  Vd: 49.3 L
[1]; 1.5 ng/kg, maximum tolerated dose level 1.50 ng/kg/min IV, n = 1, read-out: t1/2, Mean (SD) (converted)
  half-life: 27 min
[1]; 1.5 ng/kg, maximum tolerated dose level 1.50 ng/kg/min IV, n = 2
  AUC(0-t): 0.203 ng·h/mL
[1]; intravenous, range across the 4 dose levels, read-out: mean t½
  half-life: 22.9 to 28.3 min
[1]; [5]
  AUC(0-inf): 0.379 ng·h/mL
  Vd: 62 L
  CLss, Mean (SD): 91.22 (NA) L/h
[1]; maximum tolerated dose level 1.00 ng/kg/min IV, n = 1, read-out: t1/2, Mean (SD) (converted)
  half-life: 24.6 min
[1]; [6]
  AUC(0-t): 0.315 ng·h/mL
  Css, Geometric mean (geometric CV %): 51.31 (20.7) pg/mL
[1]; [7]
  AUC(0-inf): 0.701 ng·h/mL
  Vd: 35.5 L
  CLss, Mean (SD): 64.53 (NA) L/h
[1]; maximum tolerated dose level 2.00 ng/kg/min IV, n = 1, read-out: t1/2, Mean (SD) (converted)
  half-life: 22.9 min
[1]; [8]
  AUC(0-t): 0.478 ng·h/mL
  Css, Geometric mean (geometric CV %): 76.82 (56.9) pg/mL
[1]; maximum tolerated dose level 0.50 ng/kg/min IV, n = 1
  Css, Geometric mean (geometric CV %): 19.60 (NA) pg/mL
[1]; maximum tolerated dose level 1.50 ng/kg/min IV, n = 1
  CLss, Mean (SD): 6.01 (NA) L/h
[1]; maximum tolerated dose level 1.50 ng/kg/min IV, n = 2
  Css, Geometric mean (geometric CV %): 32.90 (284.8) pg/mL
[2]; human, in vivo
  TEAE abdominal pain, n [%]: 4 [23.5%] subjects
  TEAE flushing, n [%]: 5 [29.4%] subjects
  TEAE headache, n [%]: 16 [94.1%] subjects
  TEAE nausea, n [%]: 11 [64.7%] subjects
  subjects who experienced a TEAE, n (%): 17 (100.0%) subjects
  subjects with TEAEs considered severe by the Investigator, n (%): Two (11.8%) subjects
[2]; in vivo
  bradycardia or tachycardia: no bradycardia or tachycardia reported
  changes in chemistry or hematology laboratory values: no clinically significant changes
  hypertensive or hypotensive events: no hypertensive or hypotensive events reported
[2]; whole study
  SAE, AESI, TEAE leading to discontinuation of study drug, or TEAE leading to death: No subjects experienced
[3]; 1 ng/kg/min for 45 minutes
  non-compartmental clearance: 21 mL/min/kg
[3]; 2 ng/kg/min for 4 hours
  non-compartmental clearance: 24 mL/min/kg
[3]; 3 ng/kg/min for 45 minutes
  non-compartmental clearance: 20.6 mL/min/kg
